Key:
[1] = use of 4% HQ or 5% Vitamin C; cited from earlier work
[2] = Solubility of optional additional components in polyol solvents; assay type: physicochemical
Description: Additional ingredients were chosen for their compatibility with (e.g., miscibility in) 1,3 propanediol, 1,2 propanediol, and/or 1,3 butanediol.

[3] = cream containing 10% MAP; cited from earlier work
[4] = Solubilization of ascorbic acid with urea as co-solvent (recrystallization); assay type: physicochemical; details: in 1,3 propanediol
Description: Maximum saturation level experiments
Next, concentrations of ascorbic acid beyond the aforementioned maximum concentration are solubilized, using urea as a co-solvent.

[5] = Comparative studies: solubilization of prior-art ascorbic acid compositions; assay type: physicochemical; details: ascorbic acid together with urea in propylene glycol, butylene glycol and propanediol
Experimental: This example was reproduced.
All mixtures were heated to 85° C.

[6] = concentrations of 0.2%; cited from earlier work

In the case of O=C1O[C@H]([C@@H](O)CO)C(O)=C1O [AA, L-ascorbic acid], the improvement [1] is listed as 62.5%.

In the case of COc1cc(CC(C(C)=O)C(C)=O)ccc1O [Acetyl zingerone], the solubility ([2]; at 0.5-1% in 1,3 propanediol, 1,2 propanediol and 1,3 butanediol) is reported as “readily soluble”.

For O=C(O)CCCCCCCC(=O)O [AzA, Azelaic acid], the “concentration of AzA that can be solubilized” value ([2]; in 1,3 propanediol) was “up to 10%”, the “effect of hydroxyethyl urea on solubility of AzA” value ([2]; in 1,3 propanediol) was “slightly increased” and the “AzA solubilized together with ascorbic acid and urea” value ([2]; with 10% Ascorbic Acid (AA), 5% Urea in 1,3 propanediol solvent base) was 7.5%.

In the case of Oc1ccc(O)cc1 [HQ, hydroquinone], the improvement [1] is listed as 93% and the side-effects [1] is listed as 68.7%.

In the case of O=C1O[C@H]([C@@H](O)CO)C([O-])=C1OP(=O)([O-])[O-].O=C1O[C@H]([C@@H](O)CO)C([O-])=C1OP(=O)([O-])[O-].[Mg+2].[Mg+2].[Mg+2] [MAP, magnesium ascorbyl phosphate], the “brightening/lightening of the appearance of the skin” value [3] is listed as “effectively brighten/lighten the appearance of the skin”.

For NC(N)=O [U, urea], the “minimum amount U required to solubilize 20% AA” value [4] was roughly 10%, the “solubility of U (saturation reached before recrystallization of U)” value [4] was ~ 27.8% and the “maximum concentrations soluble before urea itself starts to precipitate” value [5] was 20%.

In the case of CC1(C)[C@@H](O[C@H]2O[C@H](C(=O)O)[C@@H](O)[C@H](O)[C@H]2O[C@@H]2O[C@H](C(=O)O)[C@@H](O)[C@H](O)[C@H]2O)CC[C@]2(C)[C@H]3C(=O)C=C4[C@@H]5C[C@@](C)(C(=O)O)CC[C@]5(C)CC[C@@]4(C)[C@]3(C)CC[C@@H]12 [glycyrrhizic acid, Glycyrrhizic acid], the solubility ([2]; in 1,3-propanediol) is reported as “shows solubility”.

For Madecassoside, the “reduction of erythema (skin redness)” value [6] is listed as “desirable ability to reduce erythema” and the solubility ([2]; at 0.2% in 1,3 propanediol, 1,2 propanediol and 1,3 butanediol) is listed as “soluble”.

From patent publication US20230149282A1, “High-Potency Vitamin C Chemical Peeling Solutions” (Baek Clinical Inc., priority 2020, published 2023)
